# Measurements published in US6777422B2, “Substituted tetrahydroisoquinolines as C5a receptor modulators” (Neurogen Corp., priority 2002, dated 2004).
# Biological target: T1, human C5a receptor (Homo sapiens, UniProt P21730)
# T1 construct: endogenous in cells; host or cells: U937 cells differentiated with 1 mM dibutyryl cAMP
# T1 sequence (P21730 1-350): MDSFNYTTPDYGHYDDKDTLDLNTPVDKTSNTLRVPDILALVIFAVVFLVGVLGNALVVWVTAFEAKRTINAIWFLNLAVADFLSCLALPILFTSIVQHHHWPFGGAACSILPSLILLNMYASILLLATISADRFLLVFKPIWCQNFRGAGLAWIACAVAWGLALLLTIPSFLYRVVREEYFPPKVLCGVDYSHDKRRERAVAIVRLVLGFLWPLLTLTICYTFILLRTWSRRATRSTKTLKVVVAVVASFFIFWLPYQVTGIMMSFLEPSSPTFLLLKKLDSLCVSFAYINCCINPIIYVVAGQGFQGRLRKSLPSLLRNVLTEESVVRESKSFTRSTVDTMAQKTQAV
# Experiment: C5a receptor mediated calcium mobilization assay (Example 20)
# Assay type: cell-based
# Conditions: differentiated U937 cells, read-out: Ca2+ (Ki in the standard assay of C5a receptor mediated calcium mobilization)
# Experimental: Calcium Mobilization Assays
# U937 cells are grown in differentiation media (1 mM dibutyryl cAMP in RPMI 1640 medium containing 10% fetal bovine serum) for 48 hrs at 37° C. then reseeded onto 96-well plates suitable for use in a FLIPR™ Plate Reader (Molecular Devices Corp., Sunnyvale Calif.). Cells are grown an additional 24 hours (to 70-90% confluence) before the assay. The cells are then washed once with Krebs Ringer solution. FLUO-3 calcium sensitive dye (Molecular Probes, Inc. Eugene, Oreg.) is added to 10 μg/mL and incubated with the cells at room temperature for 1 to 2 hours. The 96 well plates are then washed to remove excess dye. Fluorescence responses, measured by excitation at 480 nm and emission at 530 nm, are monitored upon the addition of human C5a to the cells to a final concentration of 0.01-30.0 nM, using the FLIPR™ device (Molecular Devices).
# C. Assays for the Identification of Receptor Modulatory Agents: Antagonists and Agonists
# The calcium mobilization assay described above may be readily adapted for identifying test compounds that have agonist or antagonist activity at the human C5a receptor.
# For example, in order to identify antagonist compounds, differentiated U937 cells are washed and incubated with Fluo-3 dye as described above. One hour prior to measuring the fluorescence signal, a subset of the cells is incubated with 1 μM of at least one compound to be tested. The fluorescence response upon the subsequent addition of 0.3 nM (final concentration) human recombinant C5a is monitored using the FLIPR™ plate reader. Antagonist compounds elicit at least a 2-fold decrease in the fluorescence response relative to that measured in the presence of human C5a alone. Preferred antagonist compounds elicit at least a 5-fold, preferably at least a 10-fold, and more preferably at least a 20-fold decrease in the fluorescence response relative to that measured in the presence of human C5a alone.
row,Ki [µM],SMILES
1,< 1,"C[C@@H](C(=O)N(Cc1ccccc1F)C1Cc2ccccc2C1)N1CCc2ccccc2[C@@H]1c1cccc2c1OCC2 [Compound 75, (2S)-2-[(1R)-1-(2,3-dihydro-1-benzofuran-7-yl)-3,4-dihydroisoquinolin-2(1H)-yl]-N-(indan-2-yl)-N-(2-fluorobenzyl)propanamide]"
2,< 1,"COC(=O)c1ccc(C2c3ccccc3CCN2CC(=O)N(Cc2ccccc2F)C2Cc3ccccc3C2)cc1 (stereo not drawn) [Compound 76, methyl 4-(2-{2-[indan-2-yl(2-fluorobenzyl)amino]-2-oxoethyl}-1,2,3,4-tetrahydroisoquinolin-1-yl)benzoate]"
3,< 1,"C[C@@H](C(=O)N(Cc1ccccc1)Cc1ccc(O)cc1Cl)N1CCc2ccccc2[C@@H]1c1ccccc1Br [Compound 77, (2S)-N-benzyl-2-[(1R)-1-(2-bromophenyl)-3,4-dihydroisoquinolin-2(1H)-yl]-N-(2-chloro-4-hydroxybenzyl)propanamide]"
4,< 1,"Cc1cc(C)c(C2c3ccccc3CCN2CC(=O)N(Cc2ccccc2F)C2Cc3ccccc3C2)c(C)c1 (stereo not drawn) [Compound 80, N-(indan-2-yl)-N-(2-fluorobenzyl)-2-(1-mesityl-3,4-dihydroisoquinolin-2(1H)-yl)acetamide]"
5,< 1,"O=C(CN1CCc2ccccc2C1c1c(F)cccc1F)N(Cc1ccccc1F)C1Cc2ccccc2C1 (stereo not drawn) [Compound 81, 2-[1-(2,6-difluorophenyl)-3,4-dihydroisoquinolin-2(1H)-yl]-N-(indan-2-yl)-N-(2-fluorobenzyl)acetamide]"
6,< 1,"Cc1ccc2ccccc2c1C1c2ccccc2CCN1CC(=O)N(Cc1ccccc1F)C1Cc2ccccc2C1 (stereo not drawn) [Compound 83, N-(indan-2-yl)-N-(2-fluorobenzyl)-2-[1-(2-methyl-1-naphthyl)-3,4-dihydroisoquinolin-2(1H)-yl]acetamide]"
7,< 1,"Cc1ccc(Cl)c([C@H]2c3ccccc3CCN2[C@@H](C)C(=O)N(Cc2ccccc2F)C2Cc3ccccc3C2)c1 [Compound 84, (2S)-2-[(1R)-1-(2-chloro-5-methylphenyl)-3,4-dihydroisoquinolin-2(1H)-yl]-N-(indan-2-yl)-N-(2-fluorobenzyl)propanamide]"
8,< 1,"Cc1ccc(C)c([C@H]2c3ccccc3CCN2[C@@H](C)C(=O)N(Cc2ccccc2F)C2Cc3ccccc3C2)c1 [Compound 85, (2S)-N-(indan-2-yl)-2-[(1S)-1-(2,5-dimethylphenyl)-3,4-dihydroisoquinolin-2(1H)-yl]-N-(2-fluorobenzyl)propanamide]"
9,< 1,"C[C@@H](C(=O)N(Cc1ccccc1F)Cc1ccccc1F)N1CCc2ccccc2[C@@H]1c1ccccc1Cl [Compound 87, (2S)-2-[(1R)-1-(2-chlorophenyl)-3,4-dihydroisoquinolin-2(1H)-yl]-N,N-bis(2-fluorobenzyl)propanamide]"
10,< 1,"C[C@@H](C(=O)N(Cc1ccccc1O)C1Cc2ccccc2C1)N1CCc2ccccc2[C@@H]1c1ccccc1Cl [Compound 90, (2S)-2-[(1R)-1-(2-chlorophenyl)-3,4-dihydroisoquinolin-2(1H)-yl]-N-(indan-2-yl)-N-(2-hydroxybenzyl)propanamide]"
11,< 1,"COc1ccc2c(c1)CC(N(Cc1ccccc1F)C(=O)CN1CCc3ccccc3C1c1ccccc1C(F)(F)F)C2 (stereo not drawn) [Compound 94, N-(2-fluorobenzyl)-N-(5-methoxy-indan-2-yl)-2-[1-[2-(trifluoromethyl)phenyl]-3,4-dihydroisoquinolin-2(1H)-yl]acetamide]"
12,< 1,"O=C(CN1CCc2ccccc2C1c1c(F)cccc1Cl)N(Cc1ccccc1F)C1Cc2ccccc2C1 (stereo not drawn) [Compound 96, 2-[1-(2-chloro-6-fluorophenyl)-3,4-dihydroisoquinolin-2(1H)-yl]-N-(indan-2-yl)-N-(2-fluorobenzyl)acetamide]"
13,< 1,"C[C@@H](C(=O)N(Cc1c[nH]cn1)C1Cc2ccccc2C1)N1CCc2ccccc2[C@@H]1c1ccccc1Cl [Compound 97, (2S)-2-[(1R)-1-(2-chlorophenyl)-3,4-dihydroisoquinolin-2(1H)-yl]-N-(indan-2-yl)-N-(1H-imidazol-4-ylmethyl)propanamide]"
14,< 1,"C[C@@H](C(=O)N(Cc1cccc(C(=O)O)c1)C1Cc2ccccc2C1)N1CCc2ccccc2[C@@H]1c1ccccc1Cl [Compound 98, 3{[{(2S)-2-[(1R)-1-(2-chlorophenyl)-3,4-dihydroisoquinolin-2(1H)-yl]propanoyl}(indan-2-yl)amino]methyl}benzoic acid]"
15,< 1,"O=C(CN1CCc2ccccc2C1c1c(F)cccc1C(F)(F)F)N(Cc1ccccc1F)C1Cc2ccccc2C1 (stereo not drawn) [Compound 99, N-(indan-2-yl)-N-(2-fluorobenzyl)-2-[1-[2-fluoro-6-(trifluoromethyl)phenyl]-3,4-dihydroisoquinolin-2(1H)-yl]acetamide]"
16,< 1,"Cc1ccccc1C1c2c(F)cccc2CCN1CC(=O)N(Cc1ccccc1F)C1Cc2ccccc2C1 (stereo not drawn) [Compound 100, N-(indan-2-yl)-N-(2-fluorobenzyl)-2-[8-fluoro-1-(2-methylphenyl)-3,4-dihydroisoquinolin-2(1H)-yl]acetamide]"

# The next lines start with the compound.
row,SMILES,Ki [µM]
1,"COc1cccc(CN(C(=O)CN2CCc3ccccc3C2c2ccccc2C)C2Cc3ccccc3C2)c1 (stereo not drawn) [Compound 79, N-(indan-2-yl)-N-(3-methoxybenzyl)-2-[1-(2-methylphenyl)-3,4-dihydroisoquinolin-2(1H)-yl]acetamide]",< 1
2,"Cc1ccccc1C1c2ccccc2CCN1CC(=O)N(Cc1ccccc1F)c1ccccc1 (stereo not drawn) [Compound 82, N-(2-fluorobenzyl)-2-[1-(2-methylphenyl)-3,4-dihydroisoquinolin-2(1H)-yl]-N-phenylacetamide]",< 1
3,"Cc1ccc(F)c([C@H]2c3ccccc3CCN2[C@@H](C)C(=O)N(Cc2ccccc2F)C2Cc3ccccc3C2)c1 [Compound 86, (2S)-N-(indan-2-yl)-N-(2-fluorobenzyl)-2-[(1R)-1-(2-fluoro-5-methylphenyl)-3,4-dihydroisoquinolin-2(1H)-yl]propanamide]",< 1
4,"Cc1ccccc1C1c2ccccc2CCN1CC(=O)N(Cc1ccc(C(=O)O)cc1)C1Cc2ccccc2C1 (stereo not drawn) [Compound 88, 4-[(indan-2-yl{[1-(2-methylphenyl)-3,4-dihydroisoquinolin-2(1H)-yl]acetyl}amino)methyl] benzoic acid]",< 1
5,"C[C@@H](C(=O)N(Cc1ccccc1F)C1Cc2ccccc2C1)N1CCc2ccccc2[C@@H]1c1c(F)cccc1F [Compound 89, (2S)-2-[(1R)-1(2,6-difluorophenyl)-3,4-dihydroisoquinolin-2(1H)-yl]-N-(indan-2-yl)-N-(2-fluorobenzyl)propanamide]",< 1
6,"C[C@@H](C(=O)N(CCc1ccccc1)Cc1ccccc1F)N1CCc2ccccc2[C@@H]1c1ccccc1Cl [Compound 91, (2S)-2-[(1R)-1-(2-chlorophenyl)-3,4-dihydroisoquinolin-2(1H)-yl]-N-(2-fluorobenzyl)-N-(2-phenylethyl)propanamide]",< 1
7,"COc1ccc2c(c1)CC(N(Cc1ccccc1F)C(=O)CN1CCc3ccccc3C1c1ccccc1Cl)C2 (stereo not drawn) [Compound 93, 2-[1-(2-chlorophenyl)-3,4-dihydroisoquinolin-2(1H)-yl]-N-(2-fluorobenzyl)-N-(5-methoxy-indan-2-yl)acetamide]",< 1
8,"O=C(CN1CCc2ccccc2C1c1c(Cl)cccc1Cl)N(Cc1ccccc1F)C1Cc2ccccc2C1 (stereo not drawn) [Compound 95, 2-[1-(2,6-dichlorophenyl)-3,4-dihydroisoquinolin-2(1H)-yl]-N-(indan-2-yl)-N-(2-fluorobenzyl)acetamide]",< 1
9,"Cc1ccccc1C1c2ccccc2CCN1CC(=O)N(Cc1cc(O)ccc1F)C1Cc2ccccc2C1 (stereo not drawn) [Compound 101, N-(indan-2-yl)-N-(2-fluoro-5-hydroxybenzyl)-2-[1-(2-methylphenyl)-3,4-dihydroisoquinolin-2(1H)-yl]acetamide]",< 1
10,"C[C@@H](C(=O)N(Cc1ccccc1F)C1Cc2ccccc2C1)N1CCc2ccccc2[C@@H]1c1c(Cl)cccc1Cl [Compound 102, (2S)-2-[(1R)-1-(2,6-dichlorophenyl)-3,4-dihydroisoquinolin-2(1H)-yl]-N-(indan-2-yl)-N-(2-fluorobenzyl)propanamide]",< 1
11,"C[C@@H](C(=O)N(Cc1ccccc1F)C1Cc2ccccc2C1)N1CCc2ccccc2[C@@H]1c1c(F)cccc1Cl [Compound 103, (2S)-2-[(1R)-1-(2-chloro-6-fluorophenyl)-3,4-dihydroisoquinolin-2(1H)-yl]-N-(indan-2-yl)-N-(2-fluorobenzyl)propanamide]",< 1
